Molecular target: Coagulation factor X (Homo sapiens) (UniProt P00742)
Experiment: Compound was evaluated for the inhibition of anti-thrombin III (AT III)-mediated coagulation proteinase factor Xa

Coagulation factor X (Homo sapiens), sequence (P00742 41-179 limits assumed): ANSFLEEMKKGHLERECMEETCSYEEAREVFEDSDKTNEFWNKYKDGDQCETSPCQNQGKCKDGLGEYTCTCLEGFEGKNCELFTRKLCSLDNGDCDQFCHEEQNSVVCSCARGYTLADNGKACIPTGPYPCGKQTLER
Coagulation factor X (Homo sapiens), sequence (P00742 235-488 limits assumed): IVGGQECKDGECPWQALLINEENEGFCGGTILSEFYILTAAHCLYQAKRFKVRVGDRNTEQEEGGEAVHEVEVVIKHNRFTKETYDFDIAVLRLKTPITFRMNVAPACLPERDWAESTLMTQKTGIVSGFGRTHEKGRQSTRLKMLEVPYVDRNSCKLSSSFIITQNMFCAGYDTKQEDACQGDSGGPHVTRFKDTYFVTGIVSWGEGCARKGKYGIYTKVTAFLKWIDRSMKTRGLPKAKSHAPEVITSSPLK

Row | SMILES | Activity [U mg-1]
1 | CCCCCCCCO[C@@H]1[C@@H](OS(=O)(=O)O)[C@H](O[C@H]2[C@H](OS(=O)(=O)O)[C@@H](OS(=O)(=O)O)[C@@H](OC)O[C@@H]2COS(=O)(=O)O)O[C@@H](C(=O)O)[C@H]1O[C@@H]1O[C@H](COS(=O)(=O)O)[C@@H](O[C@@H]2O[C@H](C(=O)O)[C@@H](O[C@@H]3O[C@H](COS(=O)(=O)O)[C@@H](OC)[C@H](OC)[C@H]3OS(=O)(=O)O)[C@H](OCCCC)[C@H]2OCCCC)[C@H](OS(=O)(=O)O)[C@H]1OS(=O)(=O)O | 700
2 | CCCCO[C@@H]1[C@@H](OS(=O)(=O)O)[C@H](O[C@H]2[C@H](OS(=O)(=O)O)[C@@H](OS(=O)(=O)O)[C@@H](OC)O[C@@H]2COS(=O)(=O)O)O[C@@H](C(=O)O)[C@H]1O[C@@H]1O[C@H](COS(=O)(=O)O)[C@@H](O[C@@H]2O[C@H](C(=O)O)[C@@H](O[C@@H]3O[C@H](COS(=O)(=O)O)[C@@H](OC)[C@H](OC)[C@H]3OS(=O)(=O)O)[C@H](OC)[C@H]2OC)[C@H](OS(=O)(=O)O)[C@H]1OS(=O)(=O)O | 994
3 | CO[C@H]1O[C@H](COS(=O)(=O)O)[C@@H](O[C@@H]2O[C@@H](C(=O)O)[C@@H](O[C@@H]3O[C@H](COS(=O)(=O)O)[C@@H](O[C@@H]4O[C@H](C(=O)O)[C@@H](O[C@@H]5O[C@H](COS(=O)(=O)O)[C@@H](O)[C@H](O)[C@H]5NS(=O)(=O)O)[C@H](O)[C@H]4O)[C@H](OS(=O)(=O)O)[C@H]3NS(=O)(=O)O)[C@H](O)[C@H]2OS(=O)(=O)O)[C@H](OS(=O)(=O)O)[C@H]1NS(=O)(=O)O | 1250
4 | CCCCO[C@@H]1[C@@H](OS(=O)(=O)O)[C@H](O[C@H]2[C@H](OC)[C@@H](OC)[C@H](O[C@H]3[C@H](OS(=O)(=O)O)[C@@H](OS(=O)(=O)O)[C@H](O[C@H]4[C@H](OC)[C@@H](OS(=O)(=O)O)[C@H](O[C@H]5[C@H](OS(=O)(=O)O)[C@@H](OS(=O)(=O)O)[C@@H](OC)O[C@@H]5COS(=O)(=O)O)O[C@H]4C(=O)O)O[C@@H]3COS(=O)(=O)O)O[C@@H]2C(=O)O)O[C@H](COS(=O)(=O)O)[C@H]1OCCCC | 1500
5 | CCCCO[C@@H]1[C@@H](OCCCC)[C@H](O[C@H]2[C@H](OS(=O)(=O)O)[C@@H](OS(=O)(=O)O)[C@H](O[C@H]3[C@H](OC)[C@@H](OS(=O)(=O)O)[C@H](O[C@H]4[C@H](OS(=O)(=O)O)[C@@H](OS(=O)(=O)O)[C@@H](OC)O[C@@H]4COS(=O)(=O)O)O[C@H]3C(=O)O)O[C@@H]2COS(=O)(=O)O)O[C@H](C(=O)O)[C@H]1O[C@@H]1O[C@H](COS(=O)(=O)O)[C@@H](OC)[C@H](OC)[C@H]1OS(=O)(=O)O | 1100
6 | CO[C@H]1O[C@H](COS(=O)(=O)O)[C@@H](O[C@@H]2O[C@@H](C(=O)O)[C@@H](O[C@@H]3O[C@H](COS(=O)(=O)O)[C@@H](O[C@@H]4O[C@H](C(=O)O)[C@@H](O[C@@H]5O[C@H](COS(=O)(=O)O)[C@@H](OC)[C@H](OC)[C@H]5OS(=O)(=O)O)[C@H](OC)[C@H]4OC)[C@H](OS(=O)(=O)O)[C@H]3OS(=O)(=O)O)[C@H](OCCCc3ccccc3)[C@H]2OS(=O)(=O)O)[C@H](OS(=O)(=O)O)[C@H]1OS(=O)(=O)O | 434
7 | CO[C@H]1O[C@H](COS(=O)(=O)O)[C@@H](O[C@@H]2O[C@@H](C(=O)O)[C@@H](O[C@@H]3O[C@H](COS(=O)(=O)O)[C@@H](O[C@@H]4O[C@H](C(=O)O)[C@@H](O[C@@H]5O[C@H](COS(=O)(=O)O)[C@@H](OC)[C@H](OC)[C@H]5OS(=O)(=O)O)[C@H](OC)[C@H]4OC)[C@H](OS(=O)(=O)O)[C@H]3OS(=O)(=O)O)[C@H](OC)[C@H]2OS(=O)(=O)O)[C@H](OS(=O)(=O)O)[C@H]1OS(=O)(=O)O | 1320
